The source of these data is patent publication US20260294922A1, “Inhibitors of JUN N-Terminal Kinases (JNK1, JNK2, and/or JNK3) and Mitogen-Activated Protein Kinases (MAPK8, MAPK9, and/or MAPK10) and Methods of Using Same” (Baylor College of Medicine, priority 2023, published 2026).

One series has as its target JNK1 (Homo sapiens, UniProt P45983). The series is described as follows: JNK1 kinase (intrinsic ATPase, Kinase-Glo) assay. In kind it is biochemical. In outline:
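Full-length construct not stated; kinases hydrolyse ATP without peptide substrate, reaction run 30 or 60 min at 30° C, remaining ATP read by Kinase-Glo luminescence with no-kinase controls. Apparent Ki from normalized fractional activities fitted to modified Morrison tight-binding equation; orthogonal LanthaScreen binding assay gave IC50.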

In the next series the target is T1, MEK4 (Homo sapiens, UniProt P45985).
T1 construct: purchased ThermoFisher (SelectScreen)
T1 sequence (P45985 1-399): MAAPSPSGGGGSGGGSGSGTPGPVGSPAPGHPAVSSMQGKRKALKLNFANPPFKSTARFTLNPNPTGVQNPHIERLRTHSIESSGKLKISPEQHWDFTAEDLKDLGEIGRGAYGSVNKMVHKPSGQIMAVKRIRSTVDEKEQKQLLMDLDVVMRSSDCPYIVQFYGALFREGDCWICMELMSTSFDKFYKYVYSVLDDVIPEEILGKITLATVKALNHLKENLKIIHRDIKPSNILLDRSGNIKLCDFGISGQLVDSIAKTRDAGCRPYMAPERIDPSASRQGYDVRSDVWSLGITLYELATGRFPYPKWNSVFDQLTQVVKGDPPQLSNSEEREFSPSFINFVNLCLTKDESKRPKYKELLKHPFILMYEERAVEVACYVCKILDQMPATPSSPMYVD
Put plainly: ThermoFisher SelectScreen, MEK4. In kind it is binding.

A further series deals with T2, CLK2 (Homo sapiens, UniProt P49760).
T2 construct: purchased ThermoFisher (SelectScreen)
T2 sequence (P49760 whole entry): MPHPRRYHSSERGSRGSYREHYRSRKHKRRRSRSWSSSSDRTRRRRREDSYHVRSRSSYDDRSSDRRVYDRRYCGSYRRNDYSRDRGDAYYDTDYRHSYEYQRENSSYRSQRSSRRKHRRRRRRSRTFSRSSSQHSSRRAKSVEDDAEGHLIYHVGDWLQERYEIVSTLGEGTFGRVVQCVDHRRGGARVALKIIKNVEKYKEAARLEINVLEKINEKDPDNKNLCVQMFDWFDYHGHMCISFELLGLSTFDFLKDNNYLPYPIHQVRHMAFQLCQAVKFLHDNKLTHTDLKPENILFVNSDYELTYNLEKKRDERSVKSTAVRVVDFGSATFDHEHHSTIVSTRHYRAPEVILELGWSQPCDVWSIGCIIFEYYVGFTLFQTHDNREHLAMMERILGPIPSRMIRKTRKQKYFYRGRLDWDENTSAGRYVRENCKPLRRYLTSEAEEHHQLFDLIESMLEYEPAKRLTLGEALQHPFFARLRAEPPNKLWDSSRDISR
Put plainly: ThermoFisher SelectScreen, CLK2. Type of series: binding.

The nature of series [1]: In vitro metabolism in human liver microsomes. Conditions: human, microsomes. As to the method: The target product profile seeks to deliver JNK inhibitor as a once daily oral administration. To prioritize compounds for further development, in vitro metabolism of several CDD JNK inhibitors were determined to approximate the plasma half-life and the rate of metabolism of the compounds in vivo.
(Liver microsomes are a subcellular fraction often used to study metabolism.)

A further series has as its target T3, PHKG2 (Homo sapiens, UniProt P15735).
T3 construct: purchased ThermoFisher (SelectScreen, outsourced service)
T3 sequence (P15735 1-406): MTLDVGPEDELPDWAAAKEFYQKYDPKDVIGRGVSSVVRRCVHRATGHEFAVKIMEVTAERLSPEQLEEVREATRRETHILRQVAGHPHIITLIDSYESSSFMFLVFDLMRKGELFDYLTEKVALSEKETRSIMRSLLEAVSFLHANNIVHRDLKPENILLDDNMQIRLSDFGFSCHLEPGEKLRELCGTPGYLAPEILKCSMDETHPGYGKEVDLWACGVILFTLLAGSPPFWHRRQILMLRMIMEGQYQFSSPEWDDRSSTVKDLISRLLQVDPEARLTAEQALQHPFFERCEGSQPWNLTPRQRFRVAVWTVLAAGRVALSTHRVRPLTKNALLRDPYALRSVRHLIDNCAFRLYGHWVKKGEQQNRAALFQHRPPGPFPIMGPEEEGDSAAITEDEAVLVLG
Put plainly: ThermoFisher SelectScreen, PHKG2. Type of series: binding. The note with it: Table 4. As to the method: To mitigate violation of the linear initial velocity principle, which is a problem in end-point assays when doing dose-responses, the enzyme concentration was carefully optimized, in a total assay volume of 25 μL. The assay was performed using 10 μM ATP, 0.02% Tween-20, kinase buffer from Cell Signaling (#9802) in white 384-well plates. The kinase reaction was done for 30 or 60 min at 30° C., and detection of leftover ATP was measured according to Promega's protocol. […] Fractional activities were obtained from normalized data. Non-linear regression (GraphPad Prism7) and a modified Morrison equation for tight binding was used to determine apparent Ki values for inhibitors, assuming no particular mode of inhibition. An orthogonal binding assay (LanthaScreen) was outsourced to ThermoFisher Scientific's SelectScreen Services to determine IC50 values.
One of the earliest compounds to be synthesized with favorable enzymatic activity towards JNK1 and JNK3 was CDD-2346. A KINOMEscan was performed for CDD-2346 to establish whether the selectivity of this chemical scaffold was suitable or required optimization. […] To confirm that the activity against each kinase was a true result and not a false positive, CDD-2346 was evaluated in kinase assays using ThermoFisher SelectScreen platform. The results from these assays are provided herein (Table 4). The important innovative steps described are the optimization of selectivity a) for JNK isoforms; b) for kinases considered “in-pathway”; and c) to avoid kinases considered “out-of-pathway”.

A further series has as its target JNK3 (Homo sapiens, UniProt P53779). Put plainly: JNK3 kinase (intrinsic ATPase, Kinase-Glo) assay. In kind it is biochemical. The note with it: Table 3a; read-out: Kd JNK3. (Kinase-Glo measures the ATP left after a reaction by luminescence.)
The test system of series [2] is human endometriotic stromal cells (patient 143). Put plainly: IL-1β-stimulated pro-inflammatory gene expression in primary endometriotic stromal cells, patient 143. Type of series: cell-based. Conditions: patient 143, relative to CDD-939. An excerpt: Similar to patient “50”, lower concentrations of CDD-2728 were required to reduce the proinflammatory response of IL-1β in stromal cells on these measured genes than in 12Z epithelial cells.
To confirm and further support the results described herein, endometriotic stromal cell cultures were established from a second patient. For compliance purposes, this set of cell culture results are identified as Eosis143. These are stromal cells obtained from the lining of an ovarian endometrioma cyst wall.

“Also recorded” adds a separate entry of the source.

JNK3, sequence (P53779 whole entry): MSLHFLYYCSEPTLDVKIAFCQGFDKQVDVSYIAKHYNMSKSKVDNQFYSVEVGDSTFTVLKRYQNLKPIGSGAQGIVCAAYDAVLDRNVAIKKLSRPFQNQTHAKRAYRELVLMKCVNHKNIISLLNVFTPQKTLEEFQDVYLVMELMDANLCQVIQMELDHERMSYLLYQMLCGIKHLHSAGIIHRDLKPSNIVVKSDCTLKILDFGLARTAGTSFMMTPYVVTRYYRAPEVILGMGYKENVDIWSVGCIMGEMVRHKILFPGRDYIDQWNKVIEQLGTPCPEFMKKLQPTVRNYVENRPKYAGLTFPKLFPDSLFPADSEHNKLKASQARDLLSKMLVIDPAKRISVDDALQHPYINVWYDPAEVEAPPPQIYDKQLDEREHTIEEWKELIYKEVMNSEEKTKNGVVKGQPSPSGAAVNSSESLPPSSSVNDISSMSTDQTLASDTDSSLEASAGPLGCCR
JNK1, sequence (P45983 whole entry): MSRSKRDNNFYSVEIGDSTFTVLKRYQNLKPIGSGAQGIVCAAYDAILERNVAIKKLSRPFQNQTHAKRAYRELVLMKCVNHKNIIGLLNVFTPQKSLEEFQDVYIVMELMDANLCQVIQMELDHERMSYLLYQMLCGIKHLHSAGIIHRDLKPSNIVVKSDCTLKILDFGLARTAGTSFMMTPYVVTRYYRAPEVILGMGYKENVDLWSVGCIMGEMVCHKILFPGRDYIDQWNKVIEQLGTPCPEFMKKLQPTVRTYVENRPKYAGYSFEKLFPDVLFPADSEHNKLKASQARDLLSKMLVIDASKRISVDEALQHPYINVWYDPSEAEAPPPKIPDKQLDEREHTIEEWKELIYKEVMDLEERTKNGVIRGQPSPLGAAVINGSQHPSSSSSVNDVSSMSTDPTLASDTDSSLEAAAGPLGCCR

With `O=C(Nc1ccc(F)cc1)c1ccn2ncc(-c3cnc4[nH]ccc4c3)c2c1` [CDD-2486, N-(4-fluorophenyl)-3-(1H-pyrrolo[2,3-b]pyridin-5-yl)pyrazolo[1,5-a]pyridine-5-carboxamide], the Kd on JNK1 was 1.7 ± 0.2 nM; at MEK4, 26.2 nM; at CLK2, 130 nM; on PHKG2, 1950 nM; at JNK3 it was 0.86 ± 0.05 nM. For the same compound, the half-life in series [1] was determined as 0.565 h.
As to `CNCc1ccc(NC(=O)c2ccn3ncc(-c4cnc5[nH]ccc5c4)c3c2)cc1` [CDD-2346, N-(4-((methylamino)methyl)phenyl)-3-(1H-pyrrolo[2,3-b]pyridin-5-yl)pyrazolo[1,5-a]pyridine-5-carboxamide], the Kd on JNK1 is 0.23 ± 0.08 nM; on MEK4, 18 nM; at CLK2, 34 nM; at PHKG2 it was 188 nM; on JNK3, 0.65 ± 0.16 nM. In addition, the half-life in series [1] amounted to 3.14 h.
Consider `CN(C)Cc1ccc(NC(=O)c2ccn3ncc(-c4cnc5[nH]ccc5c4)c3c2)cc1` [CDD-2482, N-(4-((dimethylamino)methyl)phenyl)-3-(1H-pyrrolo[2,3-b]pyridin-5-yl)pyrazolo[1,5-a]pyridine-5-carboxamide], for which the Kd at JNK1 came out at 0.25 ± 0.04 nM; on MEK4 it was 9 nM; on CLK2, 17 nM; at PHKG2, 110 nM; on JNK3 it was 0.45 ± 0.04 nM. This compound showed a half-life in series [1] of 0.945 h.
On to `CN(C)C(=O)c1cc(NC(=O)c2cc3c(-c4cnc5[nH]ccc5c4)cccc3s2)ccc1O` [CDD-2728, N-(3-(dimethylcarbamoyl)-4-hydroxyphenyl)-4-(1H-pyrrolo[2,3-b]pyridin-5-yl)benzo[b]thiophene-2-carboxamide], for which the equilibrium dissociation constant (Kd) is 0.24 ± 0.05 nM at JNK1, 18 nM at MEK4 and 240 nM on CLK2. Also, in series [1], the half-life was 2.89 h. The “inhibition of IL-6, IL-8, MMP-3 and PTGS2 gene expression” value in series [2] was “at lower doses than was required for inhibition of expression of these genes by CDD-939; also recorded: superior to bentamapimod in efficacy of suppression and potency”.

By Kd is commonly meant the equilibrium constant for the complex coming apart. What is called half-life is the time in which the quantity being followed falls by half. Read a high half-life as slow loss.
